Reference: ChEMBL document CHEMBL1800009, “Pyrazolopyridazine alpha-2-delta-1 ligands for the treatment of neuropathic pain” (Bioorg Med Chem Lett, 2010)

What was measured:
[1] = in vivo; conditions: rat, whole blood
[2] = in vivo; conditions: rat, brain/blood, 30 mg/kg

| Structure (SMILES) | clearance [1] [mL/min/kg] | Kp [2] |
| --- | --- | --- |
| Cc1nnc(N2CCCC2)c2nn(-c3ccc(OCC(F)(F)F)cc3)c(C)c12 | 49 | – |
| COC1CN(c2nnc(C)c3c(C)n(-c4ccc(Cl)cc4OC(F)(F)F)nc23)C1 | 52 | 0.94 |
